# Assay results: ChEMBL document CHEMBL1201862, “PubChem BioAssay data set” (2004)
# Calls of active or inactive are those of the source.
# Experiments:
# [1] = biological target: Heat shock protein HSP 90-alpha (Homo sapiens, UniProt P07900); format: functional, organism-based
# P388/ADR = assay: cells; format: functional; conditions: Mus musculus
# SN12K1 = assay: cells; format: functional; conditions: Homo sapiens
# P388 = assay: cells; format: functional; conditions: Mus musculus
# Cytochrome P450 2C9 = Cytochrome P450 2C9 (Homo sapiens, UniProt P11712)
# Cytochrome P450 2C9, sequence (P11712 whole entry): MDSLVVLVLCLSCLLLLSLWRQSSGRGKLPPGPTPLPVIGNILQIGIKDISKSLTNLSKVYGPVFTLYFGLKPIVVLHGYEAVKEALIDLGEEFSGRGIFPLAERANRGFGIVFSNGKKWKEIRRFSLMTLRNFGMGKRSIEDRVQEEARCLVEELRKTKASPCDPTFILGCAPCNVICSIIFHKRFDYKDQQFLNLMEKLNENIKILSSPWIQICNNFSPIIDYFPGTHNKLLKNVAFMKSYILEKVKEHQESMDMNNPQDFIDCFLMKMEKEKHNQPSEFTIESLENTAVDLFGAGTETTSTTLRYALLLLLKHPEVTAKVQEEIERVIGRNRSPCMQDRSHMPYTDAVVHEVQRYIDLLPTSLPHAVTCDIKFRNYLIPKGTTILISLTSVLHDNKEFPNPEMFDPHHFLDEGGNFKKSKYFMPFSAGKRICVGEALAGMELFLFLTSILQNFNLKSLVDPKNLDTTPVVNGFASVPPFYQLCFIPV
# [2] = biological target: T1, Short transient receptor potential channel 4 (Mus musculus, UniProt Q9QUQ5); assay: calcium entry via TRPC4 opening agents – cell-based, HEK293 TRPC4/mu-opioid, Fluo-4 calcium, dose response (AID 434937); format: functional
# T1 sequence (Q9QUQ5 whole entry): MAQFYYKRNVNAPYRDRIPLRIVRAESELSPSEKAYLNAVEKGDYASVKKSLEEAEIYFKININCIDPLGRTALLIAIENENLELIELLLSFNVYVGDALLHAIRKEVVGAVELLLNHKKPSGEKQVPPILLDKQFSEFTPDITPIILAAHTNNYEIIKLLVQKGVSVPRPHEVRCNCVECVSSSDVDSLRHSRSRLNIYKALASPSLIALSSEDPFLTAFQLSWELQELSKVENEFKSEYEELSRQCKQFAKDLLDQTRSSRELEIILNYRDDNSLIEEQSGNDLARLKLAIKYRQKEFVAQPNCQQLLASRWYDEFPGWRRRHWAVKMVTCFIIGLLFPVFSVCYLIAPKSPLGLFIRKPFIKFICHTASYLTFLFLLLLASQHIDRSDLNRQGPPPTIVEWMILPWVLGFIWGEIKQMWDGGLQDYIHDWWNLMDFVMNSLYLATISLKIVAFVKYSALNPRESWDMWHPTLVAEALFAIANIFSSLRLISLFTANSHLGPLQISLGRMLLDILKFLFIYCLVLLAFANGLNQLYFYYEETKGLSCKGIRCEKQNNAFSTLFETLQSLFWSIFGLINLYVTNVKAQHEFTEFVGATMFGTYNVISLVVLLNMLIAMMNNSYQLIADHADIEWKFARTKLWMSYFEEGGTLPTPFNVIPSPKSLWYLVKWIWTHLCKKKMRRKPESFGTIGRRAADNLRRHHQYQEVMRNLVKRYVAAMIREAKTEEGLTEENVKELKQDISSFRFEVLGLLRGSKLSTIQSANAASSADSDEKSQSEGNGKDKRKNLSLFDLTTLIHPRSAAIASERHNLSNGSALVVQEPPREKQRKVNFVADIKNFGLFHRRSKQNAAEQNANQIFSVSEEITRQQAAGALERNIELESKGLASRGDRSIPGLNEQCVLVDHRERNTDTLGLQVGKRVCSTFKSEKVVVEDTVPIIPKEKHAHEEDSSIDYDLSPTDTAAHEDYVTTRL
# [3] = Trypanosoma cruzi growth suppression in host cells – NIH3T3 host cells, beta-gal luminescence, confirmation (AID 2044); format: functional, cell-based;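 further: intracellular parasites grown in NIH/3T3 mouse fibroblasts as host cells; luminescent beta-galactosidase reporter signal from transgenic T. cruzi replicating inside host cells; inhibitors lower the luminescence signal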
# [4] = NIH3T3 cell viability loss – ATP luminescence, mouse fibroblasts, counter-screen, dose response (AID 2010); format: functional, cell-based;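 further: cells exposed to compound for about 90 hours before reading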
# BJ [5] = assay: BJ-TERT-LT-ST fibroblast viability loss – cell-based, RAS-independent, luminescence, dose response (AID 1935); format: functional; conditions: Homo sapiens;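 further: BJ fibroblasts immortalized with TERT plus LT and ST oncogenes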
# BJ [6] = assay: cells; format: functional, cell-based; conditions: Homo sapiens
# BJ [7] = assay: BJ-TERT fibroblast viability loss – cell-based, RAS-independent, luminescence, dose response (AID 1933); format: functional; conditions: Homo sapiens
# Vero = assay: cells; format: functional; conditions: Chlorocebus sabaeus
# [8] = DRD fibroblast viability loss – cell-based, non-viral oncogenic, luminescence, dose response (AID 1934); format: functional; conditions: Homo sapiens
# Cytochrome P450 2C19 = Cytochrome P450 2C19 (Homo sapiens, UniProt P33261); assay: Cytochrome panel assay with activity outcomes. Panel member name: p450-cyp2c19 Compounds with AC50 equal or less than 10 uM are considered active; format: functional
# Cytochrome P450 2C19, sequence (P33261 whole entry): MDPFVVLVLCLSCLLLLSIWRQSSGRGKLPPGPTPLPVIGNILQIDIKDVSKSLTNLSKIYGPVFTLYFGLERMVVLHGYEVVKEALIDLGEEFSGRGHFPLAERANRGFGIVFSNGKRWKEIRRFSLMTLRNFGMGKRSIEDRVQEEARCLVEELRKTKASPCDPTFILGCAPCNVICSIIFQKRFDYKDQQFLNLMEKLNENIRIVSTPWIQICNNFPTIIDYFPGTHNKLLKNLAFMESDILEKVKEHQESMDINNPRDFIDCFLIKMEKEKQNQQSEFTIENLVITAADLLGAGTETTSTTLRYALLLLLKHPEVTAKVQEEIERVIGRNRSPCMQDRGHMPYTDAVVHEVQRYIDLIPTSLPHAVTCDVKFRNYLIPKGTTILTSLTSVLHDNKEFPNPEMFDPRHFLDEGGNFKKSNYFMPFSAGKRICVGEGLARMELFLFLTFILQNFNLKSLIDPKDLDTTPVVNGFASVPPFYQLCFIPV
# Cytochrome P450 2D6 = Cytochrome P450 2D6 (Homo sapiens, UniProt P10635);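 further: CYP2D6 member of a cytochrome P450 panel assay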
# Cytochrome P450 2D6, sequence (P10635 whole entry): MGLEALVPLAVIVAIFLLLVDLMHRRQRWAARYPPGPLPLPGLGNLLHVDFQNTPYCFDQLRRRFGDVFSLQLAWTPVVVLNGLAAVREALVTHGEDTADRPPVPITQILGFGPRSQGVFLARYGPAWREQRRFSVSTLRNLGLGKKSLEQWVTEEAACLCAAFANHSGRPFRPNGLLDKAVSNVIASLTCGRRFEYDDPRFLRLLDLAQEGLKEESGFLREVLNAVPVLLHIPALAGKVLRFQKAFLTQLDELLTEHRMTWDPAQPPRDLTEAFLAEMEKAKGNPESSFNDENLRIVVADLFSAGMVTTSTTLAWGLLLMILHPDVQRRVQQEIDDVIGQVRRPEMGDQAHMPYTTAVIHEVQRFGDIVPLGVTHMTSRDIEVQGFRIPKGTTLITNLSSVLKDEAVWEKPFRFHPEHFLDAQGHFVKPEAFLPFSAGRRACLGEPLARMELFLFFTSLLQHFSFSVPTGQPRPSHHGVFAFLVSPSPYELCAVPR
# cells [9] = format: functional, cell-based
# [10] = Luminescence Cell-Based Dose Response HTS to Identify Inhibitors of 5'UTR Stem-Loop Driven Prion Protein mRNA Translation in H4 Neuroglioblastoma Cells. [Related pubchem assays: 1827 (Project Summary), 1813 (Primary HTS)]; format: functional
# [11] = alpha-synuclein stem-loop luciferase translation blockers – H4 neuroglioma cells, luminescence, confirmation (AID 1988); format: functional, cell-based
# [12] = loss of viability in HepG2 cells – cell-based, CellTiter-Glo, cherry-picked, cytotoxicity control for Shn3 inhibitor project, dose response (AID 624134); format: functional
# INS1 = assay: INS-1E survival protection against cytokine death – cell-based, luminescence, retest, dose response (AID 449756); format: functional; conditions: Rattus norvegicus;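 further: cell death triggered by IL-1 beta plus TNF-alpha plus IFN-gamma mixture; protective hits raise ATP signal compared with cytokine alone wells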
# [13] = luciferase reporter signal suppression in cells – H4 neuroglioma cells, luminescence, dose response (AID 1990); format: functional, cell-based
# [14] = Luminescence Cell-Based Dose Retest to Confirm Inhibitors of Cancer Stem Cells. [Related pubchem assays (depositor defined):AID2717, AID2721]; format: functional; conditions: Homo sapiens
# cells [15] = format: functional, cell-based; remark: listed apart in the source
# [16] = reduction of Shn3 3'UTR-driven luciferase in osteoblasts – cell-based, Clone20 osteoblasts, firefly luciferase, cherry-picked, dose response (AID 624132); format: functional;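 further: firefly luciferase luminescence from reporter carrying the Shn3 3'UTR in osteoblasts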
# [17] = non-specific 3'UTR reporter inhibition in Clone20-Shn3RL – cell-based, Renilla luciferase, cherry-picked, counter-screen for Shn3 inhibitor project, dose response (AID 624133); format: functional
# [18] = biological target: T2, Polyadenylate-binding protein 1 (Homo sapiens, UniProt P11940); assay: MLLE domain peptide-binding blockers, IC50 – biochemical, fluorescence polarization, FITC-PAM2 peptide, dose response (AID 602259); format: functional; conditions: read-out: IC50_Mean
# T2 sequence (P11940 whole entry, the tested form may be a part): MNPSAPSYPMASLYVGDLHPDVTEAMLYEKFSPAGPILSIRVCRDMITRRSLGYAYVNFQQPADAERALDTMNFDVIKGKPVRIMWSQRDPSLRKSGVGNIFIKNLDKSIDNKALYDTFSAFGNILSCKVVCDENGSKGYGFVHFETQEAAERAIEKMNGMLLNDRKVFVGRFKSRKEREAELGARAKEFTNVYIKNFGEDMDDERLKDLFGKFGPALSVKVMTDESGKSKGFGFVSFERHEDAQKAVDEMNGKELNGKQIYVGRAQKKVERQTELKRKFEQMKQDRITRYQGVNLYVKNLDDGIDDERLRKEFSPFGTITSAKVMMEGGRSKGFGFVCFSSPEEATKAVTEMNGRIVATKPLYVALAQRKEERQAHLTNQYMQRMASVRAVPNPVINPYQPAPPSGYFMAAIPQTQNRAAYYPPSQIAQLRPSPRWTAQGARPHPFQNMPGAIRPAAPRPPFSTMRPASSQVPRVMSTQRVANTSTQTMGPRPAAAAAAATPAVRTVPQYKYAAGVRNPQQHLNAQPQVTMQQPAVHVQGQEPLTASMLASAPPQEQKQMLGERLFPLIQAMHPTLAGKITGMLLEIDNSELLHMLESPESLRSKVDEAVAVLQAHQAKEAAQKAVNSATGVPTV
# [19] = biological target: T2, Polyadenylate-binding protein 1; assay: MLLE binding blockers, Cy5 peptide tracer – biochemical, fluorescence polarization, Cy5-PAM2 peptide, secondary, miRNA deadenylation inhibitor project, dose response (AID 602260); format: functional; conditions: read-out: IC50_Mean
# H4 = assay: Luminescence Cell-Based Dose Response HTS to Identify Activators of 5'UTR Stem-Loop Driven Prion Protein mRNA Translation in H4 Neuroglioblastoma Cells. [Related pubchem assays: 1829 (Project Summary), 1814 (Primary HTS)]; format: functional; conditions: Homo sapiens
# Streptokinase A = biological target: T3, Streptokinase A (Streptococcus pyogenes serotype M1, UniProt P10520); assay: viability-normalized secreted streptokinase activity reduction – plasminogen activation absorbance, OD405, dose response (AID 1914); format: functional, Streptococcus pyogenes M1 GAS;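 further: secreted streptokinase activity via plasminogen activation per viability signal from cell pellet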
# T3 sequence (P10520 whole entry): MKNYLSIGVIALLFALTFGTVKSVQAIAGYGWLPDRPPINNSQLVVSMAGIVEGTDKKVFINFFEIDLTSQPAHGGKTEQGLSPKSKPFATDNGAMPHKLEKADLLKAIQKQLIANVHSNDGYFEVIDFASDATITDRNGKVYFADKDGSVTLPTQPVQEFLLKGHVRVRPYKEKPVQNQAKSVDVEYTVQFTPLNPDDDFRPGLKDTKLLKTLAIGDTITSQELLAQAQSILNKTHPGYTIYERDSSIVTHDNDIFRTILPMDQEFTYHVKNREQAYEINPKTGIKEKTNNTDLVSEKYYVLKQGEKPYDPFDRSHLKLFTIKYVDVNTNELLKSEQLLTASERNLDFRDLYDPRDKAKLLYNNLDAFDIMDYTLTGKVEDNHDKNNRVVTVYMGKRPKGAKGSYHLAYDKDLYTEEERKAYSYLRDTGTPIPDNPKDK
# Streptococcus = assay: GAS UMAA2166 growth inhibition – luminescence, BacTiterGlo, counter-screen for streptokinase expression inhibitor project, dose response (AID 1915); format: functional, organism-based;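 further: potency for reduction of bacterial viability or growth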
# [20] = test system: Streptococcus sp. 'group A'; assay: Streptococcus pyogenes SK(-)GAS viability under kanamycin – luminescence, BacTiterGlo, confirmation, counter-screen for streptokinase expression inhibitor project, dose response (AID 1900); format: functional, organism-based
# [21] = NIH-3T3 fibroblast cytotoxicity, dose response, cytotoxicity control, cell-based, fluorescence, Alamar Blue, secondary assay (AID 2327); format: functional;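 further: NIH-3T3 mouse fibroblasts cultured with fluconazole at 8 µg/mL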
# [22] = fluconazole-exposed Candida albicans growth modulators – fluorescence, retest, confirmation (AID 2467); format: functional, cell-based
# Cytochrome P450 3A4 = Cytochrome P450 3A4 (Homo sapiens, UniProt P08684);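 further: CYP3A4 tested as one member of a cytochrome P450 panel screen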
# Cytochrome P450 3A4, sequence (P08684 whole entry): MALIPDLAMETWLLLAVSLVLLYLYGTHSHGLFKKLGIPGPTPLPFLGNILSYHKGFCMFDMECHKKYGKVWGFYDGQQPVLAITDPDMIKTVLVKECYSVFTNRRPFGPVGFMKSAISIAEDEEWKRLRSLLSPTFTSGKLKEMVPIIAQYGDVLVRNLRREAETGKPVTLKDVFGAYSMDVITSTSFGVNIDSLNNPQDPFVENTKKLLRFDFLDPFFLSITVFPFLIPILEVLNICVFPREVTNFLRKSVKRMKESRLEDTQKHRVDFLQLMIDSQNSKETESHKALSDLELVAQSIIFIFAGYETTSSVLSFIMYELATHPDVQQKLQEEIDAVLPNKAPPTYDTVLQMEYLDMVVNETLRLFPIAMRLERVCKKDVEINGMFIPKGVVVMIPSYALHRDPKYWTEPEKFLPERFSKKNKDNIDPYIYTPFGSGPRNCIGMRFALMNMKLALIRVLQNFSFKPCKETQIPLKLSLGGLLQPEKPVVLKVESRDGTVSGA
structure (smiles),measurement,setting,value
CCCC1COC(Cn2cncn2)(c2ccc(C)cc2)O1 (stereo not drawn),AC50,[1],0.73 µM (active)
C=C1CCCC(C)(C)[C@@H]1CC/C(C)=C/Cn1c2cccc(=O)c-2nc2ccccc21,GI50,P388/ADR,0.229 µM (active)
same,GI50,SN12K1,1.48 µM (inactive)
same,GI50,P388,0.569 µM (active)
CS(=O)(=O)c1ccc(Cn2c3c(c4cc(F)cc(F)c42)CCC[C@H]3CC(=O)O)cc1,AC50,Cytochrome P450 2C9,inconclusive
Cc1cc(-c2ccc(/N=N/c3ccc4c(S(=O)(=O)O)cc(S(=O)(=O)O)c(N)c4c3O)c(C)c2)ccc1/N=N/c1ccc2c(S(=O)(=O)O)cc(S(=O)(=O)O)c(N)c2c1O,GI50,P388/ADR,> 100 µM (inactive)
same,GI50,SN12K1,> 100 µM (inactive)
same,GI50,P388,> 100 µM (inactive)
Cc1ccc(C)c(OCCCCn2ccnc2)c1,EC50,[2],4.73 µM (active)
same,EC50,[3],2.04 µM (active)
same,EC50,[4],> 60 µM (not active)
CCOC(=O)C1(CCc2ccccc2)CCN(Cc2csc(C(C)=O)c2)CC1,EC50,[2],0.841 µM (active)
Cn1c(N2CCN(C(=O)Nc3ccc(F)cc3)CC2)nc2ccccc21,EC50,[2],6.68 µM (active)
CC(/C=N/NC(=O)c1[nH]nc2c1CCC2)=C\c1ccccc1,EC50,BJ [5],1.03 µM (inconclusive)
same,EC50,BJ [6],25.5 µM (inconclusive)
same,EC50,BJ [7],0.346 µM (inconclusive)
same,CC50,Vero,< 0.05 µM (active)
same,EC50,[8],0.43 µM (active)
CCCN(CCC)CCCNc1ccc2nnc(-c3ccc(F)cc3)n2n1,EC50,[2],0.596 µM (active)
O=c1n(CC2CO2)c(=O)n(CC2CO2)c(=O)n1CC1CO1 (stereo not drawn) [TEROXIRONE],GI50,P388/ADR,1.91 µM (inactive)
same,GI50,SN12K1,35.6 µM (inactive)
same,GI50,P388,1.61 µM (inactive)
C[C@@H]1CCC[C@H](C)N1,AC50,Cytochrome P450 2C9,inconclusive
same,AC50,Cytochrome P450 2C19,inconclusive
COC(=O)CN1CN(c2ccccc2)C2(CCN(Cc3ccc4ccccc4c3)CC2)C1=O,AC50,Cytochrome P450 2C9,inconclusive
same,AC50,Cytochrome P450 2D6,20 µM (inconclusive)
O=C1CCCN1CCC1CCN(C2CC(=O)N(c3ccc(Cl)cc3)C2=O)CC1 (stereo not drawn),AC50,[1],7.56 µM (active)
CCOC(=O)c1cnc(-n2nc(C)cc2C)nc1NNc1nc(-c2ccccc2)cc(-c2ccccc2)n1,EC50,cells [9],> 350 µM (not active)
same,EC50,[10],12.6 µM (active)
same,EC50,[11],8.83 µM (active)
same,AC50,[12],48.5 µM (active)
same,AC50,INS1,2.69 µM (active)
same,EC50,[13],8.48 µM (active)
same,AC50,[14],1.88 µM (active)
same,EC50,cells [15],> 350 µM (not active)
same,AC50,[16],3.84 µM (active)
same,AC50,[17],7.39 µM (active)
Cc1cc2cc(CNC(=O)c3ccc(C)c([N+](=O)[O-])c3)ccc2[nH]1,IC50,[18],> 66 µM (inactive)
same,AC50,[1],11 µM (active)
same,IC50,[19],> 66 µM (inactive)
CC(C)c1ccc(-c2cc(C(=O)N3N=C(C(F)F)CC3(O)C(F)F)c3ccccc3n2)cc1 (stereo not drawn),EC50,H4,10 µM (active)
same,EC50,Streptokinase A,> 150 µM (not active)
same,EC50,[3],3.4 µM (active)
same,EC50,[4],> 60 µM (not active)
same,EC50,Streptococcus,4.31 µM (active)
same,AC50,[14],4.37 µM (active)
same,AC50,[1],4.06 µM (active)
same,EC50,[20],3.3 µM (active)
C[C@@]12CC[C@H]3[C@@H]4CCC(=O)N[C@@]4(C)CC[C@@H]3[C@@]1(C)CC[C@H](OC(=O)Cc1ccc(N(CCCl)CCCl)cc1)C2,GI50,P388/ADR,14.7 µM (inactive)
same,GI50,SN12K1,16.9 µM (inactive)
same,GI50,P388,10.6 µM (inactive)
c1ccc(-c2ccc3c(c2)c2c4n3CCN=C4CCC2)cc1,EC50,[21],50.1 µM (active)
same,EC50,[22],> 38 µM (not active)
same,CC50,Vero,23.6 µM (active)
same,AC50,Cytochrome P450 2C19; read-out: AC50,31.6 µM (inconclusive)
CCOC(=O)C1=C(N)N=C(N)C1=Nc1ccc(OC)cc1,CC50,Vero,11.1 µM (active)
O=C(c1cnn(-c2ccccc2)c1)c1ccc2ccccc2c1O,AC50,Cytochrome P450 2C9,inconclusive
same,AC50,Cytochrome P450 2D6,7.08 µM (inconclusive)
same,AC50,Cytochrome P450 3A4,17.8 µM (inconclusive)
Nc1nc(N)c2nc(CNc3ccc(C(=O)N[C@H](CCC(=O)O)C(=O)O)cc3)cnc2n1,AC50,Cytochrome P450 2C9,inconclusive
CCCCCCCCCCCC1CCCC(C)N1 (stereo not drawn),GI50,P388/ADR,12.4 µM (inactive)
same,GI50,SN12K1,28.3 µM (inactive)
same,GI50,P388,10.5 µM (inactive)
